Values quoted from earlier work in patent US8109913B2, “Coiled wire for the controlled release of drugs to the eye” (DSM IP Assets B.V., priority 2005, dated 2012).

Tests used:
[1] = in vitro
[2] = in vivo, device loaded with atropine

SMILES	Activity of the drug when released from the coating [1]	Mydriasis [2]
N#Cc1c(N2C[C@@H]3CCCN[C@@H]3C2)c(F)cc2c(=O)c(C(=O)O)cn(C3CC3)c12 [pradofloxacin]	still active	
CN1[C@@H]2CC[C@H]1C[C@@H](OC(=O)C(CO)c1ccccc1)C2 (some centres unmarked) [atropine]		mydriasis can be obtained
